Measured values as given in ChEMBL document CHEMBL1201862, “PubChem BioAssay data set” (2004).
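The compound was tested at five concentrations on cells cultured in 96-well plates, with a 48-hour exposure period. Abbreviation: GI50, concentration required for 50% inhibition of growth.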 The source made the active and inactive calls. Cut-off read from the data, not from the text of the source: active = GI50 up to about 1.1 µM and inactive = higher.

Legend:
Assay in all cases: NCI-60 cell line screen, 48 h
DLD-1 = tested on: DLD-1
DMS-273 = tested on: DMS-273
M19-MEL = tested on: M19-MEL
LXFL 529 = tested on: LXFL 529
RXF 631 = tested on: RXF 631
DMS-114 = tested on: DMS-114
XF498 = tested on: XF498

Measured: GI50

COc1ccc(C(=O)CC(=O)C(=O)Nc2ccc(C)c(C)c2)cc1
inactive: DLD-1 61.8 µM | DMS-273 40 µM | M19-MEL > 100 µM | LXFL 529 > 64.9 µM | RXF 631 > 68.2 µM | DMS-114 22.8 µM

C[Si](C)(C)C#C[I+]c1ccccc1
inactive: DLD-1 19.4 µM | DMS-273 19.8 µM | XF498 29.8 µM | M19-MEL 31.6 µM | LXFL 529 28.4 µM | RXF 631 30.1 µM | DMS-114 20.9 µM

O/N=C1/C(=C/c2ccc(Cl)cc2)CCCC1C(NO)c1ccc(Cl)cc1 (stereo unspecified)
inactive: DLD-1 26.5 µM | DMS-273 17.8 µM | XF498 22.5 µM | M19-MEL 22.9 µM | LXFL 529 25.3 µM | RXF 631 18.1 µM | DMS-114 24.5 µM

CCCCCCC(=O)CC(=O)C(=O)Nc1ccccc1C
inactive: DLD-1 > 67.5 µM | DMS-273 > 100 µM | XF498 > 100 µM | M19-MEL > 100 µM | LXFL 529 > 100 µM | RXF 631 > 100 µM | DMS-114 > 69.7 µM

CCOc1ccccc1/N=N/c1c(-c2ccccc2)nn(C(=O)CC(=O)Nc2cccc(C)c2)c1-c1ccccc1
inactive: DLD-1 62.8 µM | DMS-273 > 100 µM | XF498 > 100 µM | M19-MEL > 100 µM | LXFL 529 > 100 µM | RXF 631 26.2 µM | DMS-114 44.8 µM

CN(C)/C(=N/C(=S)Nc1ccccc1)SCc1ccccc1
inactive: DLD-1 44.3 µM | DMS-273 51.6 µM | XF498 24.4 µM | M19-MEL 14.7 µM | LXFL 529 2.38 µM | RXF 631 88.1 µM | DMS-114 9.93 µM

COc1ccc2c(c1)[n+]([O-])c(-c1ccccc1Cl)c(N)[n+]2[O-]
inactive: DLD-1 > 100 µM | DMS-273 55.6 µM | M19-MEL 69.8 µM | LXFL 529 55.3 µM | RXF 631 37.4 µM | DMS-114 32.8 µM

Nc1c(-c2ccc(Br)cc2)[n+]([O-])c2ccccc2[n+]1[O-]
inactive: DLD-1 > 100 µM | DMS-273 > 100 µM | LXFL 529 > 100 µM | RXF 631 > 100 µM | DMS-114 50.9 µM

CSC1=Nc2ccccc2N=C(c2ccccc2)C1
inactive: DLD-1 29.4 µM | DMS-273 39.6 µM | XF498 39.4 µM | M19-MEL 54.6 µM | LXFL 529 70 µM | RXF 631 46.7 µM | DMS-114 21.5 µM

CC(C)C(NCc1c2ccccc2nc2ccccc12)C(=O)O (stereo unspecified)
inactive: DLD-1 23.8 µM | DMS-273 32.6 µM | XF498 21.1 µM | M19-MEL 33 µM | LXFL 529 39 µM | RXF 631 19.9 µM | DMS-114 27.2 µM

O=[N+]([O-])c1ccc(-n2nnc(C3=NCCN3)c2-c2ccc(Cl)cc2)cc1
inactive: DLD-1 > 100 µM | DMS-273 > 100 µM | XF498 > 100 µM | M19-MEL > 100 µM | LXFL 529 > 100 µM | DMS-114 77.1 µM

O=[N+]([O-])c1cccc(C2N3CCCCC3[C@@H]3c4[nH]c5ccccc5c4CCN23)c1 (stereo partly specified)
inactive: DLD-1 12.3 µM | DMS-273 11.8 µM | XF498 14 µM | M19-MEL 11.9 µM | LXFL 529 19 µM | DMS-114 6.9 µM

c1ccc(-c2nnc(-c3nn(-c4ccccc4)c4nc5ccccc5nc34)o2)cc1
inactive: DLD-1 25.1 µM | DMS-273 92 µM | XF498 22.1 µM | M19-MEL 47.8 µM | LXFL 529 12.3 µM | DMS-114 28.8 µM

COC1(OC)C2(Cl)C3=CCCC=C3C1(Cl)C(Cl)=C2Cl
inactive: DLD-1 28.9 µM | DMS-273 13.3 µM | XF498 19.2 µM | M19-MEL 18.8 µM | LXFL 529 25.6 µM | RXF 631 13.2 µM | DMS-114 18.1 µM
